Data reported in ChEMBL document CHEMBL4507268 (2021).

What was measured:
Settings in all cases: Compound concentration 1.0 uM
[1] = target: Cyclin-dependent kinase 13/Cyclin-K (Homo sapiens) (UniProt Q14004+O75909)
[2] = target: Serine/threonine-protein kinase pim-1 (Homo sapiens) (UniProt P11309)
[3] = target: Serine/threonine-protein kinase PAK 3 (Homo sapiens) (UniProt O75914)
[4] = target: cAMP-dependent protein kinase catalytic subunit alpha (Homo sapiens) (UniProt P17612)
[5] = target: T1, Serine/threonine-protein kinase Nek9 (Homo sapiens) (UniProt Q8TD19)
T1 sequence (whole entry): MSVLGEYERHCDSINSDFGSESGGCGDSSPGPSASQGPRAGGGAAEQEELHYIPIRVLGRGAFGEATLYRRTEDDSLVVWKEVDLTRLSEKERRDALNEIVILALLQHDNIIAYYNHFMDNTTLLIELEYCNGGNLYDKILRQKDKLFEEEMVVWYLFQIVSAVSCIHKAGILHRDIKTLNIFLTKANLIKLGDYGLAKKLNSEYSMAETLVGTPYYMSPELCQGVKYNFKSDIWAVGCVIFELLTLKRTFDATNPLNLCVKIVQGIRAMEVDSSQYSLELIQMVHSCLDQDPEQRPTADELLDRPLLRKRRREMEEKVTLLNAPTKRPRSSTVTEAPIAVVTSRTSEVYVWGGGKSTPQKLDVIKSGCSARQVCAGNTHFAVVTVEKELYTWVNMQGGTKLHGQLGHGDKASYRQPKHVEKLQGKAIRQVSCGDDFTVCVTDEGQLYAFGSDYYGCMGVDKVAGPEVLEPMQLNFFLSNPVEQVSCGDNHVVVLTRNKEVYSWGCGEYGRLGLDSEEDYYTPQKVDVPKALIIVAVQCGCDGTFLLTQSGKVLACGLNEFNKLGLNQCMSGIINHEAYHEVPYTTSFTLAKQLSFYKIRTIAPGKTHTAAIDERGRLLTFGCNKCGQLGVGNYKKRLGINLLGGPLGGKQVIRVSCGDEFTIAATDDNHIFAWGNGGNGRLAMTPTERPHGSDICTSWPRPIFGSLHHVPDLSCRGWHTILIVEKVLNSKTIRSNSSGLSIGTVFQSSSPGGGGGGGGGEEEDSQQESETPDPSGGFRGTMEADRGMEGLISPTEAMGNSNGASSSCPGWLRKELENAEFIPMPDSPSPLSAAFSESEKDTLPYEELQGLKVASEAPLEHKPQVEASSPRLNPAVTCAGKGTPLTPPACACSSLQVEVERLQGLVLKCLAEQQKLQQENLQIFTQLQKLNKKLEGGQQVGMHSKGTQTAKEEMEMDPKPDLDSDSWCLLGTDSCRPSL

[6] = target: Casein kinase II subunit alpha' (Homo sapiens) (UniProt P19784)
[7] = target: Platelet-derived growth factor receptor alpha (Homo sapiens) (UniProt P16234)
[8] = target: Serine/threonine-protein kinase 32A (Homo sapiens) (UniProt Q8WU08)
[9] = target: T2, Serine/threonine-protein kinase ICK (Homo sapiens) (UniProt Q9UPZ9)
T2 sequence (whole entry): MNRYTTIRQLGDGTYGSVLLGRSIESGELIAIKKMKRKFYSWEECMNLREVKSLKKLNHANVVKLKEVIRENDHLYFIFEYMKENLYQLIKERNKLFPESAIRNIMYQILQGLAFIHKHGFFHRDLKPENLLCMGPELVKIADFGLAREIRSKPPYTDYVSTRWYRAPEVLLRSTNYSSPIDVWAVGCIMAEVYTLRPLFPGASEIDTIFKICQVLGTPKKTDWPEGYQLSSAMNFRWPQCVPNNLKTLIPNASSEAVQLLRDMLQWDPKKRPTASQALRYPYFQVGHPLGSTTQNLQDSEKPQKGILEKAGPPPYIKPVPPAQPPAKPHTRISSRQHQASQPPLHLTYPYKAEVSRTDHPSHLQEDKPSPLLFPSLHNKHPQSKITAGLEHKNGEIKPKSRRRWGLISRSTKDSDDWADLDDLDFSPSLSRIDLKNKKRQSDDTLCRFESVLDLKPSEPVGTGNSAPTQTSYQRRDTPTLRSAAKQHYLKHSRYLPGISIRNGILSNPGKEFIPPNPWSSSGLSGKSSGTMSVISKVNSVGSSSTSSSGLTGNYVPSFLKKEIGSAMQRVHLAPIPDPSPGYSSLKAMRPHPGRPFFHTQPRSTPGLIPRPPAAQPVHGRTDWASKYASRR

[10] = target: Cyclin-dependent kinase 2/cyclin E (Homo sapiens) (UniProt P24864+P24941+O96020)
[11] = target: T3, Serine/threonine-protein kinase Chk1 (Homo sapiens) (UniProt O14757)
T3 sequence (whole entry): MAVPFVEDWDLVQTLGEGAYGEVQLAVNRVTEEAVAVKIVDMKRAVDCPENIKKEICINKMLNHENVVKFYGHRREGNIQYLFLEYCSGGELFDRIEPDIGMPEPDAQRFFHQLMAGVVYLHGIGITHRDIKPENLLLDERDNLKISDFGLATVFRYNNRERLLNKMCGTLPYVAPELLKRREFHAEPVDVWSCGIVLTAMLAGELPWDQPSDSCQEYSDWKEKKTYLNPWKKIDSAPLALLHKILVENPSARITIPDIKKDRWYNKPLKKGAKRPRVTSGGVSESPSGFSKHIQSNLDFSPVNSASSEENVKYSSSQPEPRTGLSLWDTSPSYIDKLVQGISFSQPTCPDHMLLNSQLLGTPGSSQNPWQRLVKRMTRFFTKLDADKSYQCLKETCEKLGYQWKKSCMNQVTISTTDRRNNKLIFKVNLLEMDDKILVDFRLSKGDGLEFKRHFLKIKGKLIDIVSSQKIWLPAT

[12] = target: PI3-kinase p110-alpha/p85-alpha (Homo sapiens) (UniProt P27986+P42336)
[13] = target: Death-associated protein kinase 2 (Homo sapiens) (UniProt Q9UIK4)
[14] = target: Insulin receptor-related protein (Homo sapiens) (UniProt P14616)

Measured: % residual kinase activity

Serine/threonine-protein kinase pim-1 (Homo sapiens), sequence (P11309 whole entry, looked up): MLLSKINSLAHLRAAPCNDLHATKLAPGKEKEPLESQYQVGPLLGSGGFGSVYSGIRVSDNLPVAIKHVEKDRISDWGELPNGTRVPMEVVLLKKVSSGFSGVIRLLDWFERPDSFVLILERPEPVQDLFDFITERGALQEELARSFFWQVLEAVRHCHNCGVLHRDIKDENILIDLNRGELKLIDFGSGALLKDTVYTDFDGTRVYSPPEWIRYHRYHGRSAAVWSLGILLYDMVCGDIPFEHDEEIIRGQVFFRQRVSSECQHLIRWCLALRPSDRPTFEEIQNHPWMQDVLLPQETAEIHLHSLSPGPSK
Serine/threonine-protein kinase 32A (Homo sapiens), sequence (Q8WU08 whole entry): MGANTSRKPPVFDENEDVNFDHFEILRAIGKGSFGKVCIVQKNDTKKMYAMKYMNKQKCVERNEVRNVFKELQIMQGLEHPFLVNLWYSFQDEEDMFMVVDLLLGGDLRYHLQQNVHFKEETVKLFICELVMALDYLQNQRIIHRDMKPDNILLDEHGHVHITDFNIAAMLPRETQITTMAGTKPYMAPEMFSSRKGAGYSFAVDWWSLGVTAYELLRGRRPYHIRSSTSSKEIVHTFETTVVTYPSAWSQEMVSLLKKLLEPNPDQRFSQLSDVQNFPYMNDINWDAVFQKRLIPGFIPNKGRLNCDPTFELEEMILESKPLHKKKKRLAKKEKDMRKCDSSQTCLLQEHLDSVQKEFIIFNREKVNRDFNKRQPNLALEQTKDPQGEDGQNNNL
Serine/threonine-protein kinase PAK 3 (Homo sapiens), sequence (O75914 whole entry, looked up): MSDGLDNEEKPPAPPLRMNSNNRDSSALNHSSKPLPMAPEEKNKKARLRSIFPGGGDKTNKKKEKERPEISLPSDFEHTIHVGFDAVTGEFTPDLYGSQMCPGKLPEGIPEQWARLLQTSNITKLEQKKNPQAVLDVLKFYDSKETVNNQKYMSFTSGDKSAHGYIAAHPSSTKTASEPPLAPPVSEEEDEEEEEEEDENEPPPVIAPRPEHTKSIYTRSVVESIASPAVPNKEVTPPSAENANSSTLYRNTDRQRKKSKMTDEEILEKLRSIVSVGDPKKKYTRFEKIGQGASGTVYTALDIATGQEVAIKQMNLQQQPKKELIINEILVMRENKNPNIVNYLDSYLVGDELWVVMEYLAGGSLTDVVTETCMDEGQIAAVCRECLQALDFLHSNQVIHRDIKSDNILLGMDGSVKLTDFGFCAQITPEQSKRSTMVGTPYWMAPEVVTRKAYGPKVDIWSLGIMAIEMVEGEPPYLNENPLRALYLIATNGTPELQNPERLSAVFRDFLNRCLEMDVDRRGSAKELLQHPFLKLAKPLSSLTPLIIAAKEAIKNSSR
Platelet-derived growth factor receptor alpha (Homo sapiens), sequence (P16234 whole entry): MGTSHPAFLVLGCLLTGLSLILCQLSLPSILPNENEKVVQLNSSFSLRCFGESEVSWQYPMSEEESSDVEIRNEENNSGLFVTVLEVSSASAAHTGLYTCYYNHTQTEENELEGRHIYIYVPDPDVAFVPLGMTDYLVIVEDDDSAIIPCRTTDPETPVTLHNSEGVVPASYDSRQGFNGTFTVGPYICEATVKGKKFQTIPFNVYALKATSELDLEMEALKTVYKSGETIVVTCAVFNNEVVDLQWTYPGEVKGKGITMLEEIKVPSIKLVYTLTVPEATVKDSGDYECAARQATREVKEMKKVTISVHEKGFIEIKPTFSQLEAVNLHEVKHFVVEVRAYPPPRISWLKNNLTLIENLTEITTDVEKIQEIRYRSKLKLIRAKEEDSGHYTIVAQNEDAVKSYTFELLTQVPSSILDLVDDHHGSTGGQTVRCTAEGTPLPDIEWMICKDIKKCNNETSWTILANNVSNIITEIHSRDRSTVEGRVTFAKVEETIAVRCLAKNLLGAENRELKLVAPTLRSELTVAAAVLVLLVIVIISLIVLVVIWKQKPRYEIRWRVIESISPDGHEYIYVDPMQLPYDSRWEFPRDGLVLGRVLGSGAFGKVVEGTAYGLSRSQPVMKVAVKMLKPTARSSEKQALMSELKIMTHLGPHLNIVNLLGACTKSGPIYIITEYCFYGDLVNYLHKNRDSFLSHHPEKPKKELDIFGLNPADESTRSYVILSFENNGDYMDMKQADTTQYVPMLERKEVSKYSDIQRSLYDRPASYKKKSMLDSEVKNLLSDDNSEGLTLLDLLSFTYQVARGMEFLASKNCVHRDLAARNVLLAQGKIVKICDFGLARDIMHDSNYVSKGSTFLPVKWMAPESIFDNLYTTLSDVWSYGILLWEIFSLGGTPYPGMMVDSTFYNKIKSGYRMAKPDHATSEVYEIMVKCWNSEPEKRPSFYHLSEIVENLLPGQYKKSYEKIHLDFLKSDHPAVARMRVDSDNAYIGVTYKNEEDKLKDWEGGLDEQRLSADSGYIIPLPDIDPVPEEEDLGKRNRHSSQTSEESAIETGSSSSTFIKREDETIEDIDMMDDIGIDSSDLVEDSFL
Casein kinase II subunit alpha' (Homo sapiens), sequence (P19784 whole entry, looked up): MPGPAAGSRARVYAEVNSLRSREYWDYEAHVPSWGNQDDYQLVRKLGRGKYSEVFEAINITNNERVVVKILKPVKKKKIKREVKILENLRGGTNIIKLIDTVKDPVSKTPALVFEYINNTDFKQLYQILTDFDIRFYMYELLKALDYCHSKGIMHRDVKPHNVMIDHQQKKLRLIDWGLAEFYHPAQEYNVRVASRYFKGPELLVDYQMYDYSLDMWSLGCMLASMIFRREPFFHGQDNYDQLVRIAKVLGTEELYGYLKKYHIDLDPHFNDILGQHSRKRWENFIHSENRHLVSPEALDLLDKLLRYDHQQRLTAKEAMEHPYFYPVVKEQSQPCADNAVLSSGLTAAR
Cyclin-dependent kinase 13/Cyclin-K (Homo sapiens), sequence (O75909 whole entry, looked up): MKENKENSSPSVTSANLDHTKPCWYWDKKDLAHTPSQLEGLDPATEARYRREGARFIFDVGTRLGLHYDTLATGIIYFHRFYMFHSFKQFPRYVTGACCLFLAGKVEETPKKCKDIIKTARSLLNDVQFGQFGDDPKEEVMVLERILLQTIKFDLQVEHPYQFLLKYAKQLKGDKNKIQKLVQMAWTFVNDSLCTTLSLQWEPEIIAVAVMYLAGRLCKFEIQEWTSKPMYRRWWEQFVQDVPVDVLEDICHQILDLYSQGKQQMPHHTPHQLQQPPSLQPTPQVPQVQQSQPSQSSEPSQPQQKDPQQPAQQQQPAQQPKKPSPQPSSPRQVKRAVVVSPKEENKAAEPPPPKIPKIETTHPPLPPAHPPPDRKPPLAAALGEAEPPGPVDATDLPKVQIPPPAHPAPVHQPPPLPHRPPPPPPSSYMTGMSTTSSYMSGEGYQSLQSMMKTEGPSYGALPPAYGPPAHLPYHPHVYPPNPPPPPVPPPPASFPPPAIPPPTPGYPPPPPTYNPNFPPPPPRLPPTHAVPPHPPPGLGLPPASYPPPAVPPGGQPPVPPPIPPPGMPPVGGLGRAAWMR
Cyclin-dependent kinase 13/Cyclin-K (Homo sapiens), sequence (Q14004 whole entry, looked up): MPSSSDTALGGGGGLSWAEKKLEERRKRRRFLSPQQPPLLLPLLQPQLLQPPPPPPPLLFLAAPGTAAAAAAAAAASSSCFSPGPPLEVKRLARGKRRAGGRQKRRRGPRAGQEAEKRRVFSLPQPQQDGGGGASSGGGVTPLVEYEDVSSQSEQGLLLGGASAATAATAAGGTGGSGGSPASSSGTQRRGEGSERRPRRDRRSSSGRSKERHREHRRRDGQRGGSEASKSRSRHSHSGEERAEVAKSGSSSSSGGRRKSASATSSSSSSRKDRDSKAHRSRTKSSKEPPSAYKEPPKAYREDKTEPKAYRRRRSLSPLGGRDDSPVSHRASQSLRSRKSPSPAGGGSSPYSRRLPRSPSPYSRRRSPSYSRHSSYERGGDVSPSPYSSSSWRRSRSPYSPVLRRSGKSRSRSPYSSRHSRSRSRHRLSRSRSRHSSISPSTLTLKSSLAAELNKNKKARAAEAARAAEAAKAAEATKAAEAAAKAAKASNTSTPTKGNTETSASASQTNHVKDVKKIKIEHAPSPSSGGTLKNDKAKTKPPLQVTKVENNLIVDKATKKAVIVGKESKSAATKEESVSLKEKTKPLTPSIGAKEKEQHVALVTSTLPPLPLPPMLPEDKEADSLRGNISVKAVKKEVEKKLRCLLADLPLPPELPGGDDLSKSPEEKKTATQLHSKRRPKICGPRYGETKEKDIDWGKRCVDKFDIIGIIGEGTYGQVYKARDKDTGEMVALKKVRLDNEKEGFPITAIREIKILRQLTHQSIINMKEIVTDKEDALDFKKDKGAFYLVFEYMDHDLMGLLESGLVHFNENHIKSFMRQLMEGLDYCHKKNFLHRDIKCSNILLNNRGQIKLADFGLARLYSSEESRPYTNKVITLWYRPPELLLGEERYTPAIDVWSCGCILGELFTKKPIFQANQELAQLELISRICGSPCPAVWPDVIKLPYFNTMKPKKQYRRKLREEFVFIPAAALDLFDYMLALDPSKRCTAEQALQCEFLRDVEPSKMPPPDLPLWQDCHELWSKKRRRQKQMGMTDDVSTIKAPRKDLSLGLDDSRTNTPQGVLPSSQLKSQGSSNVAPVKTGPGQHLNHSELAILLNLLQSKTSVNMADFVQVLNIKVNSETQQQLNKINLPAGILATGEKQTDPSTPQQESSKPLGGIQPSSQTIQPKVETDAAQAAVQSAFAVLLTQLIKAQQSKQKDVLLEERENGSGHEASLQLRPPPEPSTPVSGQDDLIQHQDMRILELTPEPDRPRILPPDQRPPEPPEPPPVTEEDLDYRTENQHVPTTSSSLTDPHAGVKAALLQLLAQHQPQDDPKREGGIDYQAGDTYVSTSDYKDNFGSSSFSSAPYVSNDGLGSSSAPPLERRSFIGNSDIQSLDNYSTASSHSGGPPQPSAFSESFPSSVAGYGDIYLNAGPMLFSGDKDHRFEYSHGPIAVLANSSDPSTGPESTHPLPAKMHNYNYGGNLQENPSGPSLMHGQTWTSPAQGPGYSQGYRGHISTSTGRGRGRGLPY

CN1CCN(c2cnc3c(C4CCN(C(=O)c5ccc(OC(F)(F)F)cc5N)CC4)ncnc3c2)CC1 [BAY-885]
inactive: [1] 109% | [2] 111% | [3] 106% | [4] 99% | [5] 92% | [6] 94% | [7] 105% | [8] 100% | [9] 93% | [10] 99% | [11] 89% | [12] 98% | [13] 99% | [14] 111%
